{
  "source": "PubChem BioAssay AID2060611",
  "about": "(Molecular Pharmacology Branch, DTP, NCI, 2025)",
  "test_system": "628569-122-R-J1-PDC complex spheroid viability",
  "test": "Anticancer human tumor 628569-122-R-J1-PDC patient-derived head and neck squamous carcinoma cell line growth inhibition [CLK]",
  "conditions": "for viability, T/C: stronger effect = lower value",
  "text": "A high-throughput screen of multi-cell type tumor spheroids was designed to identify active combinations of […] and targeted small molecules. Complex spheroids include a stromal component modeled by human endothelial cells (HUVEC) and fibroblasts modeled by human mesenchymal stem cells (MSCs). The concentration ranges selected for each drug and investigational agent were based upon clinically achievable concentrations if the clinical Cmax of the agent was known.\nCompounds. The drugs and investigational agents: cirtuvivint (SM08502; NSC835563), CC-671 (NSC850746), vemurafenib (NSC761431), tapotoclax (NSC804041), sotorasib (NSC818433), adagrasib (NSC831453), MRTX-1133 (NSC836407), BAY2416964 (NSC825713), copanlisib (NSC816437), inavolisib (NSC800729), abemaciclib (NSC768073), osimertinib (NSC779217), entinostat (NSC756642), eltanexor (KPT-8602, NSC794443), venetoclax (NSC766270), ceralasertib (NSC777638), bortezomib (NSC756655), olaparib (NSC753686), talazoparib (NSC767125), alisertib (NSC759677), peposertib (NSC802822), gemcitabine (NSC613327), 5-fluorouracil (NSC19893), SN-38 (NSC673596), oxaliplatin (NSC266046), paclitaxel (NSC125973), and doxorubicin (NSC123127), were obtained from the National Cancer Institute (NCI) Developmental Therapeutics Program Chemical Repository. The FDA-approved anticancer drug set is available from the Developmental Therapeutics Program at https://dtp.cancer.gov/organization/dscb/obtaining/available plates.htm. […] The stock solutions were prepared in dimethyl sulfoxide (DMSO, Sigma-Aldrich, St. Louis, MO, cat. D2650), except for the platinum complexes which were prepared in saline (Quality Biological, Gaithersburg, MD, cat. 114-055-101), at 800-fold the tested concentration and stored at -70 degrees C prior to their use. All drugs and investigational agents were tested over a range starting from a high concentration at or near the clinical Cmax and decreasing in half-log increments. If the clinical Cmax for an agent had not been determined, the highest concentration tested was 10 microM.\nCell Culture. All cells were maintained in an incubator at 37 degrees C and 5% CO2 with 95% humidity. The PDC lines were cultured according to standard operating procedures established by the NCI PDMR. Briefly, all PDCs were thawed and cultured in Matrigel-coated flasks prepared with a working solution of 1X Ham's F-12 nutrient mix, without supplementation (Invitrogen, Waltham, MA, cat. 11765054), 100 U/mL penicillin-streptomycin (Invitrogen, cat. 15140122), and 2.5% Matrigel (Corning Inc., Corning, NY, cat. 354248) for the first three passages. The 947758-054-R-J2-PDC line was cultured in 6B/Colon 1A media, which includes advanced DMEM/F-12 (Thermo Fisher Scientific, cat. 12634028), 10 mM HEPES (Thermo Fisher Scientific, cat. 15630080), 1X GlutaMAX supplement (Thermo Fisher Scientific, cat. 35050061), 0.1 mg/mL primocin (InvivoGen, cat. ant-pm-2), 10% defined fetal bovine serum, heat inactivated (HyClone Laboratories Inc., cat. SH30070.03HI), 1.25 mM N-Acetyl-L-cysteine (Sigma-Aldrich, cat. A9165), 10 mM nicotinamide (Sigma-Aldrich, cat. N0636), 1X B-27 supplement (Thermo Fisher Scientific, cat. 17504044), 1X N-2 supplement (Thermo Fisher Scientific, cat. 17502048), and 10 microM Y-27632 dihydrochloride (Tocris Bioscience, cat. 1254). The 876862-298-R-J1-PDC was cultured in 6E media, which includes all 6B/Colon 1A media components plus 50% L-WRN conditioned media (ATCC, cat. CRL-3276), 50 ng/mL recombinant human EGF recombinant protein (hEGF; Thermo Fisher Scientific, cat. PHG0311), 10 ng/mL recombinant human fibroblast growth factor 10 (hGFG-10; PeproTech, cat. 100-26), 1 ng/mL recombinant human fibroblast growth factor 2 (hFGF-2; PeproTech, cat. 100-18B), and 1 µM prostaglandin E2 (PGE2; Tocris, cat. 2296). The 227483-062-R1-J1-PDC line was cultured in Panc media, containing all 6E components except hFGF-2, with the addition of 500 nM SB-431542 (Selleckchem, cat. S1067) and 10 nM gastrin (Tocris, cat. 3006). […]",
  "note": "“And” between values parts separate entries of the source, which are not always exact repeats. Identical values can stand only once.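 Note: spheroids exposed to agents for seven days before readout.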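 Throughout, for viability, T/C: 100% = DMSO vehicle control viability.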",
  "data": [
    {"compound": "CC(=O)O[C@H]1C(=O)[C@@]2(C)[C@H]([C@H](OC(=O)c3ccccc3)[C@]3(O)C[C@H](OC(=O)[C@H](O)[C@@H](NC(=O)c4ccccc4)c4ccccc4)C(C)=C1C3(C)C)[C@]1(OC(C)=O)CO[C@@H]1C[C@@H]2O", "values": [
      {"measurement": "viability, T/C", "setting": "compound 0.0316 µM", "value": "29.1% and 29.6%"},
      {"measurement": "viability, T/C", "setting": "compound 0.1 µM", "value": "30.8% and 26.9%"},
      {"measurement": "viability, T/C", "setting": "compound 0.316 µM", "value": "27.4% and 26.9%"},
      {"measurement": "viability, T/C", "setting": "compound 1 µM", "value": "27.5% and 24.6%"},
      {"measurement": "viability, T/C", "setting": "compound 3.16 µM", "value": "27.2% and 33.9%"},
      {"measurement": "viability, T/C", "setting": "compound 10 µM", "value": "44.5% and 41.1%"},
      {"measurement": "IC50", "setting": "curve of compound", "value": "< 31.6", "unit": "nM"}
    ]},
    {"compound": "COc1ccc([C@@H](O)c2cc(-c3ncnc4cc(N5CCOCC5)ccc34)c(F)cc2Cl)nn1", "values": [
      {"measurement": "viability, T/C", "setting": "compound 0.0316 µM", "value": "79.4% and 79.8%"},
      {"measurement": "viability, T/C", "setting": "compound 0.1 µM", "value": "92.1% and 72.9%"},
      {"measurement": "viability, T/C", "setting": "compound 0.316 µM", "value": "69.5% and 75.5%"},
      {"measurement": "viability, T/C", "setting": "compound 1 µM", "value": "51% and 57.1%"},
      {"measurement": "viability, T/C", "setting": "compound 3.16 µM", "value": "41.2% and 39.4%"},
      {"measurement": "viability, T/C", "setting": "compound 10 µM", "value": "21.8% and 31.3%"},
      {"measurement": "IC50", "setting": "curve of compound", "value": "1350 nM and 1610 nM"}
    ]},
    {"compound": "COc1cccc2c1C(=O)c1c(O)c3c(c(O)c1C2=O)CC(O)(C(=O)CO)CC3OC1CC(N)C(O)C(C)O1", "note": "(stereo not drawn)", "values": [
      {"measurement": "viability, T/C", "setting": "compound 0.0316 µM", "value": "79.4% and 65.2%"},
      {"measurement": "viability, T/C", "setting": "compound 0.1 µM", "value": "51.3% and 43.7%"},
      {"measurement": "viability, T/C", "setting": "compound 0.316 µM", "value": "107% and 88.3%"},
      {"measurement": "viability, T/C", "setting": "compound 1 µM", "value": "31.9% and 12.3%"},
      {"measurement": "viability, T/C", "setting": "compound 3.16 µM", "value": "12.3% and 14.2%"},
      {"measurement": "viability, T/C", "setting": "compound 10 µM", "value": "4.08% and 10.9%"},
      {"measurement": "IC50", "setting": "curve of compound", "value": "644 nM and 445 nM"}
    ]},
    {"compound": "C=CC(=O)N1CCN(c2nc(=O)n(-c3c(C)ccnc3C(C)C)c3nc(-c4c(O)cccc4F)c(F)cc23)C(C)C1", "note": "(stereo not drawn) + CN1CCN(c2cc(C(=O)Nc3cc4cc(-c5cnn(C)c5)ccc4cn3)ccn2)CC1", "values": [
      {"measurement": "IC50", "setting": "curve of first compound, second compound 0.0316 µM", "value": "> 10000", "unit": "nM"},
      {"measurement": "IC50", "setting": "curve of first compound, second compound 0.1 µM", "value": "> 10000", "unit": "nM"},
      {"measurement": "IC50", "setting": "curve of first compound, second compound 0.316 µM", "value": "< 31.6", "unit": "nM"},
      {"measurement": "IC50", "setting": "curve of first compound, second compound 1 µM", "value": "< 31.6", "unit": "nM"},
      {"measurement": "IC50", "setting": "curve of first compound, second compound 3.16 µM", "value": "< 31.6", "unit": "nM"},
      {"measurement": "IC50", "setting": "curve of first compound, second compound 10 µM", "value": "< 31.6", "unit": "nM"},
      {"measurement": "viability, T/C", "setting": "second compound 0.0316 µM, first compound 0.0316 µM", "value": 104, "unit": "%"},
      {"measurement": "viability, T/C", "setting": "second compound 0.0316 µM, first compound 0.1 µM", "value": 89.4, "unit": "%"},
      {"measurement": "viability, T/C", "setting": "second compound 0.0316 µM, first compound 0.316 µM", "value": 110, "unit": "%"},
      {"measurement": "viability, T/C", "setting": "second compound 0.0316 µM, first compound 1 µM", "value": 113, "unit": "%"},
      {"measurement": "viability, T/C", "setting": "second compound 0.0316 µM, first compound 3.16 µM", "value": 132, "unit": "%"},
      {"measurement": "viability, T/C", "setting": "second compound 0.0316 µM, first compound 10 µM", "value": 140, "unit": "%"},
      {"measurement": "viability, T/C", "setting": "second compound 0.1 µM, first compound 0.0316 µM", "value": 51.7, "unit": "%"},
      {"measurement": "viability, T/C", "setting": "second compound 0.1 µM, first compound 0.1 µM", "value": 65.7, "unit": "%"},
      {"measurement": "viability, T/C", "setting": "second compound 0.1 µM, first compound 0.316 µM", "value": 77.1, "unit": "%"},
      {"measurement": "viability, T/C", "setting": "second compound 0.1 µM, first compound 1 µM", "value": 81.3, "unit": "%"},
      {"measurement": "viability, T/C", "setting": "second compound 0.1 µM, first compound 3.16 µM", "value": 86.2, "unit": "%"},
      {"measurement": "viability, T/C", "setting": "second compound 0.1 µM, first compound 10 µM", "value": 71.4, "unit": "%"},
      {"measurement": "viability, T/C", "setting": "second compound 0.316 µM, first compound 0.0316 µM", "value": 32.5, "unit": "%"},
      {"measurement": "viability, T/C", "setting": "second compound 0.316 µM, first compound 0.1 µM", "value": 38.2, "unit": "%"},
      {"measurement": "viability, T/C", "setting": "second compound 0.316 µM, first compound 0.316 µM", "value": 41.5, "unit": "%"},
      {"measurement": "viability, T/C", "setting": "second compound 0.316 µM, first compound 1 µM", "value": 37.5, "unit": "%"},
      {"measurement": "viability, T/C", "setting": "second compound 0.316 µM, first compound 3.16 µM", "value": 51, "unit": "%"},
      {"measurement": "viability, T/C", "setting": "second compound 0.316 µM, first compound 10 µM", "value": 31.4, "unit": "%"},
      {"measurement": "viability, T/C", "setting": "second compound 1 µM, first compound 0.0316 µM", "value": 6.64, "unit": "%"},
      {"measurement": "viability, T/C", "setting": "second compound 1 µM, first compound 0.1 µM", "value": 5.37, "unit": "%"},
      {"measurement": "viability, T/C", "setting": "second compound 1 µM, first compound 0.316 µM", "value": 5.91, "unit": "%"},
      {"measurement": "viability, T/C", "setting": "second compound 1 µM, first compound 1 µM", "value": 5.6, "unit": "%"},
      {"measurement": "viability, T/C", "setting": "second compound 1 µM, first compound 3.16 µM", "value": 8.96, "unit": "%"},
      {"measurement": "viability, T/C", "setting": "second compound 1 µM, first compound 10 µM", "value": 6.5, "unit": "%"},
      {"measurement": "viability, T/C", "setting": "second compound 3.16 µM, first compound 0.0316 µM", "value": 9.3, "unit": "%"},
      {"measurement": "viability, T/C", "setting": "second compound 3.16 µM, first compound 0.1 µM", "value": 9.76, "unit": "%"},
      {"measurement": "viability, T/C", "setting": "second compound 3.16 µM, first compound 0.316 µM", "value": 6.13, "unit": "%"},
      {"measurement": "viability, T/C", "setting": "second compound 3.16 µM, first compound 1 µM", "value": 4.78, "unit": "%"},
      {"measurement": "viability, T/C", "setting": "second compound 3.16 µM, first compound 3.16 µM", "value": 5.85, "unit": "%"},
      {"measurement": "viability, T/C", "setting": "second compound 3.16 µM, first compound 10 µM", "value": 4.66, "unit": "%"},
      {"measurement": "viability, T/C", "setting": "second compound 10 µM, first compound 0.0316 µM", "value": 2.59, "unit": "%"},
      {"measurement": "viability, T/C", "setting": "second compound 10 µM, first compound 0.1 µM", "value": 1.73, "unit": "%"},
      {"measurement": "viability, T/C", "setting": "second compound 10 µM, first compound 0.316 µM", "value": 2.2, "unit": "%"},
      {"measurement": "viability, T/C", "setting": "second compound 10 µM, first compound 1 µM", "value": 1.51, "unit": "%"},
      {"measurement": "viability, T/C", "setting": "second compound 10 µM, first compound 3.16 µM", "value": 4.91, "unit": "%"},
      {"measurement": "viability, T/C", "setting": "second compound 10 µM, first compound 10 µM", "value": 3.2, "unit": "%"}
    ]}
  ]
}
